Test results from patent publication US20260250318A1, “COMPOSITIONS AND METHODS FOR CROSSING THE BLOOD BRAIN BARRIER” (VOYAGER THERAPEUTICS, INC., priority 2022, published 2026).

Legend:
[1] = system: brain; test: NGS fold enrichment of synthetic library (passage 3) in BALB/c mice, first cross-species screen; format: in vivo; settings: synthetic library passage 3, intravenous, RNA NGS, brain of BALB/c mice, relative to wild-type AAV9
In short: (§1)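 Passage-3 synthetic capsid library given intravenously […] to NHPs (2-4 years) and BALB/c or C57Bl/6 mice (n=3, 6-8 weeks). After e.g. 28 days, tissue RNA was RT-PCR amplified and NGS-sequenced; values are fold enrichment of each variant relative to wild-type AAV9.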

[2] = system: brain; test: NGS fold enrichment of synthetic library (passage 3) in C57Bl/6 mice, first cross-species screen; format: in vivo; settings: synthetic library passage 3, intravenous, RNA NGS, brain of C57Bl/6 mice, relative to wild-type AAV9
In short: as §1

[3] = system: brain, spinal cord, and DRG of the NHPs; test: NGS fold enrichment of synthetic library (passage 3) in NHPs, first cross-species screen; format: in vivo, cynomolgus macaques (Macaca fascicularis); settings: synthetic library passage 3, intravenous, RNA NGS, relative to wild-type AAV9
In short: as §1

Row | Sequence | Fold enrichment over AAV9 in the brain of Mice (BALB/c) [1] [fold] | Fold enrichment over AAV9 in the brain of Mice (C57Bl/6) [2] [fold] | Fold enrichment over AAV9 in the brain of NHPs [3] [fold] | Fold enrichment over AAV9 in the spinal cord of NHPs [3] [fold]
1 | GLSAEKSSGQNQQT | 0.303 | 0.629 | 1.047 | 7.203
2 | GLSNPMPSGQNQQT | 0.829 | 1.190 | 2.280 | 6.033
3 | GLSWPSTSGQNQQT | 0.610 | 0.910 | 2.238 | 0.000
4 | GMDHSRPSGQNQQT | 0.648 | 0.918 | 1.627 | 3.976
5 | GMGRHSASGQNQQT | 0.389 | 0.470 | 1.417 | 6.500
6 | GMRMEYQSGQNQQT | 0.632 | 0.644 | 1.729 | 3.695
7 | GMRTYHLSGQNQQT | 1.586 | 2.033 | 9.241 | 1.939
8 | GMSAHMSSGQNQQT | 0.947 | 1.310 | 2.456 | 5.255
9 | GMTSHSVSGQNQQT | 0.154 | 0.220 | 1.850 | 2.732
10 | GMYEYSQSGQNQQT | 0.448 | 1.410 | 1.438 | 0.000
11 | GNGFSSASGQNQQT | 0.182 | 0.240 | 2.493 | 0.772
12 | GNGHSMRPNQNQQT | 0.376 | 0.693 | 1.560 | 2.341
13 | GNGLYAVSGQNQQT | 0.213 | 0.322 | 2.611 | 9.148
14 | GNGQNQQHSILHGT | 0.415 | 0.777 | 1.435 | 0.000
15 | GNIAGSVSGQNQQT | 0.257 | 0.446 | 2.849 | 1.187
16 | GNILHATSGQNQQT | 0.424 | 1.159 | 2.136 | 0.125
17 | GNIQWQGSGQNQQT | 0.837 | 1.182 | 2.468 | 6.266
